In article PMC12610573, “New Chlormequat-Based Ionic Liquids as Plant Resistance Inducers” (Molecules, 2025):

Columns and labels:
[1] = test system: radish (Raphanus sativus) sprouts; experiment: Phytotoxicity test on radish sprouts; assay type: in vivo; conditions: for Reduction in Sprout Mass: compared with untreated control; for Mass of 25 Sprouts: radish, 5 days, UTC 3.09 g; for Phytotoxic effect on radish sprout mass: versus control
Protocol: Twenty five seeds of radish (Raphanus sativus) were placed on a filter tissue in a Petri dish. […] Then, sprouts were weighted. All variants of treatment were tested together, with 3 replications (plates) in each of 2 cycles performed. Results were subjected to statistical analysis as described in Section 4.8.
(§1) Statistical significance of the effect of the treatments of plants with tested compounds on the phytotoxicity and SAR induction was assessed with the ANOVA test performed using the Statistica program StatSoft with software version 9.1 (StatSoft Sp. z o.o., Kraków, Poland). The statistical assumptions of normality and homogeneity of variances were verified prior to conducting the ANOVA tests. Differences between the means were estimated with Tukey’s HSD test at the significance level of p = 0.05.

[2] = test system: Tobamovirus tabaci (tobacco mosaic virus, TMV) on Nicotiana tabacum cv. Xanthi; experiment: SAR induction assay: necrotic area after TMV inoculation of sprayed tobacco; assay type: in vivo; conditions: for SAR Induction (percentage of necrotic area on leaves): TMV inoculation after 7 days, read 7 days later, UTC 34.54; for pest or weed control at 125 µg/mL / pest or weed control at 250 µg/mL: topical, read-out: Reduction in Necrotic Area; for pest or weed control at 125 µg/mL / pest or weed control at 250 µg/mL / Reduction in Necrotic Area: compared with untreated control plants; for Percentage of necrotic spot coverage (leaf shown in supplementary figure): single leaf image
Protocol: Plants of Nicotiana tabacum cv. Xanthi were grown under greenhouse conditions at 25 °C and 50% relative humidity, under natural daylight during the May–August growing season, with a natural photoperiod. The plants were sprayed with solutions containing the tested compounds.
In all experiments, the TMV SL-1 isolate Tobamovirus (TMV) was used. To obtain a viral inoculum, Nicotiana tabacum cv. Samsun plants were sap-inoculated with previously virus-infected plant material. After the appearance of disease symptoms on the infected plants (leaf mosaic), the virus was isolated by sucrose density gradient centrifugation with 0.01 M Tris-HCl, pH 7.0, to prepare the infectious inoculum. The concentration of virus in the obtained preparation was determined spectrophotometrically. The samples of TMV were stored at −20 °C until use.
The tested active substances at a given concentration were sprayed on tobacco plants with three fully developed leaves. The volume of working solution used was equal to 10 mL per plant. The compounds were dissolved in a water/propylene glycol solution (95/5, v/v). The plants of the untreated control variant were sprayed with a water/propylene glycol solution (95/5, v/v) that was used for the preparation of solutions of the tested compounds. After seven days, the plants were mechanically inoculated using purified viral preparations (0.01 ng/mL as described in [34]).
The plants were inoculated with the TMV inoculum at a concentration of 3.8 × 10^−4 ng per leaf. For each variant of treatment, 3 plants were sprayed, and 3 leaves of each plant were analyzed. The entire experiment was performed in 2 replicates. Necrotic areas on the leaves were determined using ImageJ software.
The surface of a leaf or an area with necrotic spots is represented by a set of pixels in the image, which are counted by the program. Reduction in necrotic area (ISAR) is expressed by the following formula:(1) ISAR=100−(At/Ac∗100) where At is the ratio of the area of necrotic spots caused by viral infection that appeared on the leaf treated with the test substance to the whole area of the leaf; Ac is the ratio of the area of the necrotic spots caused by viral infection that appeared on the leaf of the control plant to the whole area of the leaf.
as §1

[3] = Solubility tests in representative solvents (Vogel protocol); conditions: 25 °C; for solubility: thermodynamic from solid
Protocol: The solubilities of the prepared ILs in ten representative solvents were determined according to the protocols from Vogel’s Textbook of Practical Organic Chemistry. The solvents chosen for the study were arranged in order of descending value of their Snyder polarity index: water—9.0, methanol—6.6, acetone—5.1, isopropanol—4.3, toluene—2.3, and hexane—0.0.

[4] = Thermogravimetric analysis (TGA), thermal stability; conditions: TGA under nitrogen, 10 °C/min; for Thermal Stability T5%onset: 5% weight loss onset; for Thermal Stability Tonset: decomposition onset
Protocol: TGA was performed on a TGA Q50 (Texas Instruments, Dallas, TX, USA) under nitrogen. Samples (5–10 mg) were heated from 25 °C to 500 °C at 10 °C/min with an isothermal step at 85 °C for 10 min. T5%onset and Tonset values were recorded.

Row | Structure (SMILES) | Reduction in Sprout Mass ([1]; 125 mg/L) | Mass of 25 Sprouts ([1]; 125 mg/L) | Mass of 25 Sprouts ([1]; 250 mg/L) | SAR Induction (percentage of necrotic area on leaves) ([2]; 125 mg/L spray) | SAR Induction (percentage of necrotic area on leaves) ([2]; 250 mg/L spray) | Reduction in Sprout Mass ([1]; 250 mg/L) | Reduction in Necrotic Area ([2]; 125 mg/L) | Reduction in Necrotic Area ([2]; 250 mg/L) | Thermal Stability T5%onset [4] | Thermal Stability Tonset [4] | further results
1 | O=C(O)c1cccnc1 [Nicotinic acid] | 10.79% | 2.76 gh B | 2.63 j AB g | 27.69 fg C % | 22.07 g B % | – | – | – | – | – | pest or weed control at 125 µg/mL ([2]; 125 mg/L): 19.8%; pest or weed control at 250 µg/mL ([2]; 250 mg/L): 36.1%
2 | O=C(O)c1ccccc1O [Salicylic acid] | 29.77% | 2.17 cd B g | 1.14 bc A g | 26.60 fg C % | 25.06 g C % | 63.27% | – | – | – | – | Percentage of necrotic spot coverage (leaf shown in supplementary figure) ([2]; 125 mg/L): 23.67%; Percentage of necrotic spot coverage (leaf shown in supplementary figure) ([2]; 250 mg/L): 19.86%; pest or weed control at 125 µg/mL ([2]; 125 mg/L): 23%; pest or weed control at 250 µg/mL ([2]; 250 mg/L): 27.4%
3 | C[N+](C)(C)CCCl.O=C([O-])c1cc(Cl)cc(Cl)c1O [[CC][3,5-ClSal]] | 27.51% | 2.24 cde C g | 1.94 ef B g | 7.79 ab A % | 4.93 abc A % | 37.38% | 77.4% | 85.7% | 208.3 °C | – | Solubility in Hexane ([3]; Snyder polarity index 0.0): − (insoluble); Solubility in Toluene ([3]; Snyder polarity index 2.3): − (insoluble); Solubility in Isopropanol ([3]; Snyder polarity index 4.3): +/− (of limited solubility); Solubility in Acetone ([3]; Snyder polarity index 5.1): − (insoluble); Solubility in Methanol ([3]; Snyder polarity index 6.6): + (soluble); Solubility in Water ([3]; Snyder polarity index 9.0): +/− (of limited solubility)
4 | C[N+](C)(C)CCCl.O=C([O-])c1cccc(Cl)c1O [[CC][3-ClSal]] | 15.97% | 2.60 fgh D | 1.96 ef C g | 2.52 a AB % | 1.39 a A % | 36.68% | 92.7% | 96.0% | 196.2 °C | 136.1 °C | Solubility in Hexane ([3]; Snyder polarity index 0.0): − (insoluble); Solubility in Toluene ([3]; Snyder polarity index 2.3): − (insoluble); Solubility in Isopropanol ([3]; Snyder polarity index 4.3): +/− (of limited solubility); Solubility in Acetone ([3]; Snyder polarity index 5.1): − (insoluble); Solubility in Methanol ([3]; Snyder polarity index 6.6): + (soluble); Solubility in Water ([3]; Snyder polarity index 9.0): +/− (of limited solubility); Percentage of necrotic spot coverage (leaf shown in supplementary figure) ([2]; 125 mg/L): 0.79%; Percentage of necrotic spot coverage (leaf shown in supplementary figure) ([2]; 250 mg/L): 0.27%
5 | C[N+](C)(C)CCCl [[CC][Cl], Chlormequat chloride, reference compound] | 24.00% | 2.35 def B g | 2.08 fgh A | – | – | – | – | – | 255.0 °C | 259.8 °C | Solubility in Isopropanol [3]: remained insoluble; solubility ([3]; organic solvent or mixture, Solubility in Acetone, Snyder polarity index 5.1): < 33.3 mg/mL; solubility ([3]; organic solvent or mixture, Solubility in Hexane, Snyder polarity index 0.0): < 33.3 mg/mL; solubility ([3]; organic solvent or mixture, Solubility in Isopropanol, Snyder polarity index 4.3): < 33.3 mg/mL; solubility ([3]; organic solvent or mixture, Solubility in Methanol, Snyder polarity index 6.6): > 100 mg/mL; solubility ([3]; organic solvent or mixture, Solubility in Toluene, Snyder polarity index 2.3): < 33.3 mg/mL; solubility ([3]; water, Solubility in Water, Snyder polarity index 9.0): > 100 mg/mL
6 | C[N+](C)(C)CCCl.O=C([O-])c1ccncc1 [[CC][IsoNic]] | 15.70% | 2.60 fgh C | 1.99 efg AB | 24.51 ef A % | 21.48 g A % | 35.65% | 29.0% | 37.8% | 164.3 °C | 85.3 °C | –
7 | C[N+](C)(C)CCCl.O=C([O-])c1cccnc1 [[CC][Nic]] | 8.20% | 2.84 hi B g | 2.28 hi A g | 19.70 de B % | 11.52 def A % | 26.16% | 43.0% | 66.7% | 166.9 °C | 89.9 °C | Phytotoxic effect on radish sprout mass ([1]; 125 mg/L): no phytotoxic effect; Phytotoxic effect on radish sprout mass ([1]; 250 mg/L): significant decrease in the radish sprout mass
